Test results reported in BindingDB's records for PubMed 34838650 (University of Messina, 2022).

How the values were obtained:
[1] = molecular target: Proteasome subunit beta type-10 (PSMB10); test: Inhibition of 20S immuno proteosome beta2i subunit (unknown origin) assessed as substrate hydrolysis using Boc-Leu-Arg-Arg-AMC as fluorogenic substrate at 100 uM
[2] = molecular target: Proteasome subunit beta type-9 (PSMB9); test: Inhibition of 20S immuno proteosome beta1i subunit (unknown origin) assessed as substrate hydrolysis using Z-Leu-Leu-Glu-AMC as fluorogenic substrate at 100 uM
[3] = Inhibition of 20S constitutive proteosome beta2c subunit (unknown origin) assessed as substrate hydrolysis using Boc-Leu-Arg-Arg-AMC as fluorogenic substrate at 100 uM
[4] = Inhibition of 20S constitutive proteosome beta1c subunit (unknown origin) assessed as substrate hydrolysis using Z-Leu-Leu-Glu-AMC as fluorogenic substrate at 100 uM
[5] = molecular target: Proteasome subunit beta type-9 (PSMB9); test: Inhibition of human spleen 20S immuno proteosome beta1i subunit assessed as substrate hydrolysis using Ac-Pro-Ala-Leu-AMC as fluorogenic substrate by fluorescence based assay
[6] = Inhibition of chymotrypsin-like activity of human 20s immuno proteasome beta5i subunit assessed as substrate hydrolysis using Suc-Leu-Leu-Val-Tyr-AMC as flurogenic substrate at 0.004 mg/ml measured for 10 mins by fluorescence assay

| Ki [1] | Ki [2] | Ki [3] | Ki [4] | Ki [5] | Ki [6] | Compound |
| --- | --- | --- | --- | --- | --- | --- |
| 4 µM | 14 µM | 10 µM |  |  |  | COc1cc2ccn(C/C=C/C(=O)NCCc3ccccc3)c(=O)c2cc1OC |
| 42 µM |  | 10 µM |  |  |  | CCCCNC(=O)/C=C/Cn1ccc2cc(OC)c(OC)cc2c1=O |
| 12 µM | 10 µM | 15 µM | 17 µM |  |  | COc1cc2ccn(C/C=C/C(=O)Nc3ccccc3)c(=O)c2cc1OC |
| 42 µM |  |  |  |  |  | COc1cc2ccn(C/C=C/C(=O)NC3CCCCC3)c(=O)c2cc1OC |
|  |  |  |  | 0.021 µM |  | O=C(CCn1ccccc1=O)NCc1ccccc1 |
|  |  |  |  |  | 4.39 µM | CC(C)CCNC(=O)Cn1ccc2ccc(Br)cc2c1=O |
| 20 µM | 0.27 µM | 4 µM |  |  |  | COc1cc2ccn(C/C=C/C(=O)NCCC(C)C)c(=O)c2cc1OC |
| 3 µM | 50 µM | 5 µM |  |  |  | COc1cc2ccn(C/C=C/C(=O)NCCCc3ccccc3)c(=O)c2cc1OC |
|  | 3 µM | 9 µM | 23 µM |  |  | COc1cc2ccn(C/C=C/C(=O)NCc3ccccc3)c(=O)c2cc1OC |
